Results reported in patent US20230233569A1 (Revolution Medicines, Inc., priority 2020, published 2023).

Columns and labels:
KRAS G13C = KRAS G13C (Homo sapiens, UniProt P01116+P62937, G13C); test: Disruption of BRAF RBD interaction with Ras (FRET / MOA assay, with Cyclophilin A); type: biochemical; details: read-out: KRAS G13C FRET data, IC50
Method in brief: (§1)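 Compound-driven ternary complex formation between nucleotide-loaded K-Ras and Cyclophilin A was measured as loss of BRAF RBD binding. Compounds (10-point 3-fold series, top 30 μM final) were incubated 3 h at 25 °C, then anti-His Eu-W1024 (10 nM) and anti-GST allophycocyanin (50 nM) added for 1.5 h. IC50 was taken from the TR-FRET ratio decrease versus DMSO.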

NRAS G12C = NRAS G12C (Homo sapiens, UniProt P01111+P62937, G12C); test: as above; type: biochemical; details: NRAS G12C; read-out: NRAS G12C FRET data IC50
KRAS WT = KRAS WT (Homo sapiens, UniProt P01116+P62937); test: as above; type: biochemical; details: KRAS WT; read-out: KRAS WT FRET data IC50
Method in brief: as §1

KRAS G13D = KRAS G13D (Homo sapiens, UniProt P01116+P62937, G13D); test: as above; type: biochemical; details: KRAS G13D; read-out: KRAS G13D FRET data IC50
Method in brief: as §1

KRAS G12V = KRAS G12V (Homo sapiens, UniProt P01116+P62937, G12V); test: as above; type: biochemical; details: KRAS G12V; read-out: KRAS G12V FRET data IC50
Method in brief: as §1

KRAS G12C = KRAS G12C (Homo sapiens, UniProt P01116+P62937, G12C); test: as above; type: biochemical; details: read-out: KRAS G12C FRET data, IC50
Method in brief: as §1

KRAS G12S = KRAS G12S (Homo sapiens, UniProt P01116+P62937, G12S); test: as above; type: biochemical; details: read-out: KRAS G12S FRET data, IC50
Method in brief: as §1

KRAS G12D = KRAS G12D (Homo sapiens, UniProt P01116+P62937, G12D); test: as above; type: biochemical; details: read-out: KRAS G12D FRET data, IC50
Method in brief: as §1

Capan-1 (K-Ras G12V) = test: CellTiter-Glo cell viability assay, 5-day treatment; type: cell-based; details: Homo sapiens, CAPAN-1, 120 h, 5-day treatment; read-out: Capan-1 Cell Viability assay data (K-Ras G12V, IC50)
Method in brief: (§2)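 Viability is read as luminescence on day 5 after direct compound addition to plated cells, following about 30 minutes' room-temperature equilibration. Each signal is scaled to mean DMSO as 100%.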

NCI-H358 (K-Ras G12C) = test: as above; type: cell-based; details: Homo sapiens, NCI-H358, 120 h, 5-day treatment; read-out: H358 Cell Viability assay data (K-Ras G12C, IC50)
Method in brief: as §2

NRAS WT = NRAS WT (Homo sapiens, UniProt P01111+P62937); test: Disruption of BRAF RBD interaction with Ras (FRET / MOA assay, with Cyclophilin A); type: biochemical; details: NRAS WT; read-out: NRAS WT FRET data IC50
Method in brief: (§3)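 IC50 reflects compound-driven Ras:Cyclophilin A ternary complex displacing BRAF RBD, read as lowered TR-FRET ratio relative to DMSO after Eu anti-His (10 nM) and APC anti-GST (50 nM) detection for 1.5 h. Prior incubation 3 h, 25° C, with 12.5 nM GMPPNP-loaded Ras, 50 nM BRAF RBD, 25 μM Cyclophilin A; top compound 30 μM.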

NRAS Q61R = NRAS Q61R (Homo sapiens, UniProt P01111+P62937, Q61R); test: as above; type: biochemical; details: NRAS Q61R; read-out: NRAS Q61R FRET data IC50
Method in brief: as §3

NRAS Q61K = NRAS Q61K (Homo sapiens, UniProt P01111+P62937, Q61K); test: as above; type: biochemical; details: NRAS Q61K; read-out: NRAS Q61K FRET data IC50
Method in brief: as §3

KRAS Q61H = KRAS Q61H (Homo sapiens, UniProt P01116+P62937, Q61H); test: as above; type: biochemical; details: KRAS Q61H; read-out: KRAS Q61H FRET data IC50
Method in brief: as §3

Sequence of KRAS G13C (P01116 1-169 isoform P01116-2 G13C): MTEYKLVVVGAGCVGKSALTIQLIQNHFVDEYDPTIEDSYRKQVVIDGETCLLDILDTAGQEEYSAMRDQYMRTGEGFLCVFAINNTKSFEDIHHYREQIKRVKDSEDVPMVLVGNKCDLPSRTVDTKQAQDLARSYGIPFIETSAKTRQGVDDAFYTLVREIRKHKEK
Sequence of KRAS G13C (P62937 whole entry): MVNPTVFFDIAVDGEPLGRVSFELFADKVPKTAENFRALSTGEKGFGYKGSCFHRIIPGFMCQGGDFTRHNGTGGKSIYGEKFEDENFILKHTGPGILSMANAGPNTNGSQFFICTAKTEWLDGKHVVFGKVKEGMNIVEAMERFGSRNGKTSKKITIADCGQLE
Sequence of KRAS G12C (P01116 1-169 isoform P01116-2 G12C): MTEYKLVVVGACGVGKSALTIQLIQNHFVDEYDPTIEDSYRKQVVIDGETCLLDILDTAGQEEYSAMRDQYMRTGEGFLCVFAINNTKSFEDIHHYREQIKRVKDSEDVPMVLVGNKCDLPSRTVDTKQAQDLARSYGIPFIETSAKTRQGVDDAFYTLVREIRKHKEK
Sequence of KRAS G12C (P62937 whole entry): as the sequence (P62937 whole entry) above
Sequence of KRAS G12V (P01116 1-169 isoform P01116-2 G12V limits assumed): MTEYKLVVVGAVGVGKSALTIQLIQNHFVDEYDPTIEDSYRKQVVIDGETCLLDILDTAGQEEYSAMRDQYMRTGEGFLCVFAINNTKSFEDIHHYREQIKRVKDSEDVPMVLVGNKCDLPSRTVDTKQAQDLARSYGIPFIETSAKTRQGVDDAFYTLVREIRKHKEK
Sequence of KRAS G12V (P62937 whole entry): as the sequence (P62937 whole entry) above
Sequence of KRAS WT (P01116 1-169 isoform P01116-2 limits assumed): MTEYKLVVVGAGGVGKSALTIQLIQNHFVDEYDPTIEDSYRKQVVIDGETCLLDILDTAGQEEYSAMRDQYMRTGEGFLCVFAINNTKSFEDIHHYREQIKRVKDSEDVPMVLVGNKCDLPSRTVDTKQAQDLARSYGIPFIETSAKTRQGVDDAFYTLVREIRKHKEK
Sequence of KRAS WT (P62937 whole entry): as the sequence (P62937 whole entry) above
Sequence of KRAS Q61H (P01116 1-169 isoform P01116-2 Q61H limits assumed): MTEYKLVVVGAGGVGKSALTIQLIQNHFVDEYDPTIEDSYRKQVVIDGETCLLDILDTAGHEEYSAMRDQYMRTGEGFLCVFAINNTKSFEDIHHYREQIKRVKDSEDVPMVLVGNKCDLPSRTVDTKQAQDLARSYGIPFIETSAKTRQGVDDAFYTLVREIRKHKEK
Sequence of KRAS Q61H (P62937 whole entry): as the sequence (P62937 whole entry) above
Sequence of KRAS G12S (P01116 1-169 isoform P01116-2 G12S limits assumed): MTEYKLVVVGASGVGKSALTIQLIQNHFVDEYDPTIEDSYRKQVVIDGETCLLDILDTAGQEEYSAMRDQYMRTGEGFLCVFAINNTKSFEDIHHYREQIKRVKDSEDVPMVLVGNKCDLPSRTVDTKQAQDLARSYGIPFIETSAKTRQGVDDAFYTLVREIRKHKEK
Sequence of KRAS G12S (P62937 whole entry): as the sequence (P62937 whole entry) above
Sequence of KRAS G12D (P01116 1-169 isoform P01116-2 G12D limits assumed): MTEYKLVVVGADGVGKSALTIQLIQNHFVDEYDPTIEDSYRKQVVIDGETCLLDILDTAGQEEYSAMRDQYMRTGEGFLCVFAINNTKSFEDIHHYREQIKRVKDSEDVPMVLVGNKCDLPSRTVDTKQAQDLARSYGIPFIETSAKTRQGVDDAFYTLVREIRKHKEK
Sequence of KRAS G12D (P62937 whole entry): as the sequence (P62937 whole entry) above
Sequence of NRAS WT (P01111 whole entry): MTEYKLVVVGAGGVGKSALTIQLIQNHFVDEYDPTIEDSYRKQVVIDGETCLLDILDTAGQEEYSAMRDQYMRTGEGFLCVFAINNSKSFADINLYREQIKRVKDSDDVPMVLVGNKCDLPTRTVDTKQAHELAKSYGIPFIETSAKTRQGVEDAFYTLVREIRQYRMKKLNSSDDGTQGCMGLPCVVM
Sequence of NRAS WT (P62937 whole entry): as the sequence (P62937 whole entry) above
Sequence of NRAS Q61K (P01111 whole entry Q61K): as the sequence (P01111 whole entry) above, with Q61K counted along it
Sequence of NRAS Q61K (P62937 whole entry): as the sequence (P62937 whole entry) above
Sequence of KRAS G13D (P01116 1-169 isoform P01116-2 G13D limits assumed): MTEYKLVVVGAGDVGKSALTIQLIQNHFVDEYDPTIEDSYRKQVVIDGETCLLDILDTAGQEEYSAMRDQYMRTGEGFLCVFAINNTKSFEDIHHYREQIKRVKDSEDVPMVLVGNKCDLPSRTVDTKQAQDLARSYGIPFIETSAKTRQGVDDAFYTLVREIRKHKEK
Sequence of KRAS G13D (P62937 whole entry): as the sequence (P62937 whole entry) above
Sequence of NRAS G12C (P01111 whole entry G12C): as the sequence (P01111 whole entry) above, with G12C counted along it
Sequence of NRAS G12C (P62937 whole entry): as the sequence (P62937 whole entry) above
Sequence of NRAS Q61R (P01111 whole entry Q61R): as the sequence (P01111 whole entry) above, with Q61R counted along it
Sequence of NRAS Q61R (P62937 whole entry): as the sequence (P62937 whole entry) above

Row | Structure (SMILES) | IC50 (KRAS G13C) | IC50 (NRAS G12C) | IC50 (KRAS WT) | IC50 (KRAS G13D) | IC50 (KRAS G12V) | IC50 (KRAS G12C) | IC50 (KRAS G12S) | IC50 (KRAS G12D) | IC50 (NCI-H358 (K-Ras G12C)) | IC50 (NRAS WT) | IC50 (NRAS Q61R) | IC50 (NRAS Q61K) | IC50 (KRAS Q61H) | IC50 (Capan-1 (K-Ras G12V))
1 | CCn1c(-c2cccnc2[C@H](C)OC)c2c3cc(ccc31)-c1csc(n1)C[C@H](NC(=O)[C@H](C(C)C)N(C)C(=O)N1CC(N(C)S(C)(=O)=O)C1)C(=O)N1CCC[C@H](N1)C(=O)OCC(C)(C)C2 (atropisomer, axis not shown) [Example A550] | 100 to 1000 nM | 10 to 100 nM | 100 to 1000 nM | 100 to 1000 nM | 100 to 1000 nM | 10 to 100 nM | 100 to 1000 nM | 1000 to 10000 nM | 10 to 100 nM | 100 to 1000 nM | 100 to 1000 nM | 10 to 100 nM | 10 to 100 nM | 10 to 100 nM
2 | CCn1c(-c2cccnc2[C@H](C)OC)c2c3cc(ccc31)-c1csc(n1)[C@@H](O)[C@H](NC(=O)[C@H](C(C)C)N(C)C(=O)N1CC(N(C)C)C1)C(=O)N1CCC[C@H](N1)C(=O)OCC(C)(C)C2 (atropisomer, axis not shown) [Example A489] | 100 to 1000 nM | 10 to 100 nM | 100 to 1000 nM | 100 to 1000 nM | 100 to 1000 nM | 10 to 100 nM | 100 to 1000 nM | 1000 to 10000 nM | 10 to 100 nM | 100 to 1000 nM | 100 to 1000 nM | 10 to 100 nM | 100 to 1000 nM | 100 to 1000 nM
3 | CCn1c(-c2cccnc2[C@H](C)OC)c2c3cc(ccc31)-c1csc(n1)C[C@H](NC(=O)[C@H](C(C)C)N(C)C(=O)N1CC(OC)C1)C(=O)N1CC[C@H](C)[C@H](N1)C(=O)OCC(C)(C)C2 [Example A579, N-((2S)-1-(((6^3S,6^4S,4S,Z)-1^1-ethyl-1^2-(2-((S)-1-methoxyethyl)pyridin-3-yl)-6^4,10,10-trimethyl-5,7-dioxo-6^1,6^2,6^3,6^4,6^5,6^6-hexahydro-1^1H-8-oxa-2(4,2)-thiazola-1(5,3)-indola-6(1,3)-pyridazinacycloundecaphane-4-yl)amino)-3-methyl-1-oxobutan-2-yl)-3-methoxy-N-methylazetidine-1-carboxamide] | 100 to 1000 nM | 100 to 1000 nM | 100 to 1000 nM | 1000 to 10000 nM | 100 to 1000 nM | 100 to 1000 nM | 1000 to 10000 nM | 1000 to 10000 nM | 100 to 1000 nM | 100 to 1000 nM | 100 to 1000 nM | 100 to 1000 nM | 100 to 1000 nM | 100 to 1000 nM
4 | CCn1c(-c2cccnc2[C@H](C)OC)c2c3cc(ccc31)-c1csc(n1)C[C@H](NC(=O)[C@H](C(C)C)N(C)C(=O)N1CCCC[C@@H](N(C)C)C1)C(=O)N1CCC[C@H](N1)C(=O)OCC(C)(C)C2 [Example A492] | 100 to 1000 nM | 100 to 1000 nM | 100 to 1000 nM | 100 to 1000 nM | 100 to 1000 nM | 100 to 1000 nM | 100 to 1000 nM | 100 to 1000 nM | 10 to 100 nM | 100 to 1000 nM | 100 to 1000 nM | 100 to 1000 nM | 10 to 100 nM | 100 to 1000 nM
5 | CCn1c(-c2cccnc2[C@H](C)OC)c2c3cc(ccc31)-c1csc(n1)C[C@H](NC(=O)[C@H](C(C)C)N(C)C(=O)N1CC[C@@]3(CCN(C)C3=O)C1)C(=O)N1CCC[C@H](N1)C(=O)OCC(C)(C)C2 (single isomer, unassigned) [Example A495] | 100 to 1000 nM | 100 to 1000 nM | 100 to 1000 nM | 1000 to 10000 nM | 100 to 1000 nM | 100 to 1000 nM | 100 to 1000 nM | 1000 to 10000 nM | 10 to 100 nM | 100 to 1000 nM | 100 to 1000 nM | 100 to 1000 nM | 100 to 1000 nM | 100 to 1000 nM

Continued, in another order:

Row | IC50 (KRAS G13C) | IC50 (NRAS G12C) | IC50 (KRAS WT) | IC50 (KRAS G13D) | IC50 (KRAS G12V) | IC50 (KRAS G12C) | IC50 (KRAS G12S) | IC50 (KRAS G12D) | IC50 (NCI-H358 (K-Ras G12C)) | IC50 (NRAS WT) | IC50 (NRAS Q61R) | IC50 (NRAS Q61K) | IC50 (KRAS Q61H) | Structure (SMILES) | IC50 (Capan-1 (K-Ras G12V))
6 | 10 to 100 nM | 10 to 100 nM | 10 to 100 nM | 100 to 1000 nM | 10 to 100 nM | 10 to 100 nM | 10 to 100 nM | 100 to 1000 nM | < 10 nM | 10 to 100 nM | 10 to 100 nM | 10 to 100 nM | 10 to 100 nM | CCn1c(-c2cc(N3CCN(C)CC3)cnc2[C@H](C)OC)c2c3cc(ccc31)-c1csc(n1)C[C@H](NC(=O)[C@H](C1CCCC1)N(C)C(=O)N(C)C)C(=O)N1CCC[C@H](N1)C(=O)OCC(C)(C)C2 (atropisomer, axis not shown) [Example A526] | < 10 nM
7 | 10 to 100 nM | 10 to 100 nM | 10 to 100 nM | 10 to 100 nM | 10 to 100 nM | 10 to 100 nM | 10 to 100 nM | 10 to 100 nM | < 10 nM | 10 to 100 nM | 10 to 100 nM | 10 to 100 nM | < 10 nM | CCn1c(-c2cccnc2[C@H](C)OC)c2c3cc(ccc31)-c1cc(O)cc(c1)C[C@H](NC(=O)[C@H](C(C)C)N(C)C(=O)C1(C#N)CC1)C(=O)N1CCC[C@H](N1)C(=O)OCC(C)(C)C2 (racemic) [Example A159] | 10 to 100 nM
8 | 100 to 1000 nM | 10 to 100 nM | 100 to 1000 nM | 100 to 1000 nM | 10 to 100 nM | 10 to 100 nM | 100 to 1000 nM | 100 to 1000 nM | 10 to 100 nM | 10 to 100 nM | 10 to 100 nM | 10 to 100 nM | 10 to 100 nM | CCn1c(-c2cccnc2[C@H](C)OC)c2c3cc(ccc31)-c1csc(n1)C[C@H](NC(=O)[C@H](C(C)C)N(C)C(=O)N1CC([C@H](C)OC)C1)C(=O)N1CCC[C@H](N1)C(=O)OCC(C)(C)C2 (atropisomer, axis not shown) [Example A279] | 10 to 100 nM
9 | 10 to 100 nM | 10 to 100 nM | 10 to 100 nM | 100 to 1000 nM | 10 to 100 nM | 10 to 100 nM | 100 to 1000 nM | 100 to 1000 nM | < 10 nM | 10 to 100 nM | 10 to 100 nM | 100 to 1000 nM | 10 to 100 nM | CCn1c(-c2cc(N3CCN(C)CC3)cnc2[C@H](C)OC)c2c3cc(ccc31)-c1cccc(c1)C[C@H](NC(=O)[C@H](C(C)C)N(C)C(=O)[C@@H]1OCC[C@@H]1c1ccccc1)C(=O)N1CCC[C@H](N1)C(=O)OCC(C)(C)C2 (atropisomer, axis not shown) [Example A562] | < 10 nM
10 | 10 to 100 nM | 100 to 1000 nM | 10 to 100 nM | 10 to 100 nM | 100 to 1000 nM | 100 to 1000 nM | 10 to 100 nM | 10 to 100 nM | 100 to 1000 nM | 10 to 100 nM | 1000 to 10000 nM | 100 to 1000 nM | 10 to 100 nM | CCn1c(-c2cccnc2[C@H](C)OC)c2c3cc(ccc31)-c1cc(O)cc(c1)C[C@H](NC(=O)[C@H](C(C)C)N(C)C(=O)C1CN(C)C1)C(=O)N1CCC[C@H](N1)C(=O)OCC(C)(C)C2 (atropisomer, axis not shown) [Example A124] | 1000 to 10000 nM
11 | 10 to 100 nM | 10 to 100 nM | 10 to 100 nM | 100 to 1000 nM | 100 to 1000 nM | 10 to 100 nM | 100 to 1000 nM | 100 to 1000 nM | 100 to 1000 nM | 10 to 100 nM | 100 to 1000 nM | 100 to 1000 nM | 10 to 100 nM | CCn1c(-c2cccnc2[C@H](C)OC)c2c3cc(ccc31)-c1cc(O)cc(c1)C[C@H](NC(=O)[C@H](C(C)C)N(C)C(=O)[C@H]1C[C@@H]1O)C(=O)N1CCC[C@H](N1)C(=O)OCC(C)(C)C2 (single isomer, unassigned) [Example A346] | 100 to 1000 nM
